This is an account of results in US20110257202A1, “Therapeutic Compositions and Methods for Treating Chronic Kidney Disease Associated with a Metabolic Imbalance” (priority 2008, published 2011).

Series [1] concerns DM eNOSKO mice. To be noted: diabetic eNOS-deficient mice; reference 21; cited from earlier work.
Series [2] has as its system eNOSKO mice. The note with it: 4 weeks, 50 mg/l drinking water. The method, then:
Since nitrite is a metabolite of NO, and can be converted to NO in the body (reviewed in ^28), sodium nitrite was tested to see if it could prevent hypertension in eNOSKO mice.

In series [3] the test system is mitochondria. Description: Mitochondrial loss in response to oxidative stress.
In series [4] the test system is wild type diabetic (DM) mice. Briefly: Renal histology (early diabetic nephropathy) in wild type diabetic mice. In kind it is in vivo. The source says: These are considered early changes of diabetic nephropathy.
(§1) FIG. 4 ACE inhibitors and ARBs are not effective at preventing diabetic nephropathy in eNOSKO mice. DM caused mesangial expansion in DM eNOSKO mice (B), which was not prevented by enalapril (C) or telmisartan (D). […] Bar: 20 μm. […] Bar: 20 μm. White bar=no treatment; Black bar=enalapril; Gray bar=telmisartan. Data are shown as means and
(§2) FIG. 1 is a graph showing that ACE inhibitors are effective in lowering blood pressure in wild type diabetic (DM) mice. Shown in FIG. 1 is the effect of no treatment (No TX), the ACE inhibitor enalapril (DM enalapril), and the ARB telmisartan (DM telmisartan). […] These are considered early changes of diabetic nephropathy.
(§3) DM caused mesangial expansion in DM eNOSKO mice (b), which was not prevented by enalapril (c) or telmisartan (d). […] Bar: 20 μm. […] Bar: 20 μm. White bar=no treatment; Black bar=enalapril; Gray bar=telmisartan. FIG. 5 pertains to a table that provides results of the effect of ACE inhibitors and ARBs on blood pressure and renal function in diabetic nephropathy in eNOSKO mice. ACE inhibitors and ARBs are effective at lowering blood pressure and proteinuria in wild type diabetic mice, and are also effective at lowering blood pressure in nondiabetic eNOSKO mice.

Series [5] concerns wild type diabetic (DM) mice. Briefly: Blood pressure in wild type diabetic mice. In kind it is in vivo.
Text: FIG. 1 represents a graph showing that ACE inhibitors are effective in lowering blood pressure in wild type diabetic (DM) mice. Shown in FIG. 1 is the effect of no treatment (No TX), the ACE inhibitor enalapril (DM enalapril), and the ARB telmisartan (DM telmisartan).
as §2

Series [6] concerns DM eNOSKO mice. Description: Renal histology (diabetic nephropathy) in diabetic eNOSKO mice. In kind it is in vivo.
Text: It has been shown that when diabetes is induced in these mice with streptozotocin, that they develop all aspects of human diabetic nephropathy, including clinical manifestations (nephrotic proteinuria, progressive renal failure and early mortality), histologic manifestations (including mesangial expansion, nodules and mesangiolysis, podocyte abnormalities, vascular lesions, tubulointerstitial disease) and molecular changes (increases in TGF-β and VEGF expression). To the inventors' knowledge this is also the first diabetic model that develops both retinopathy and nephropathy spontaneously.
as §1
FIG. 7 is an immunohistograph of a kidney of a Diabetic eNOSKO mouse showing an increase in aldosterone in its glomeruli. Diabetes was induced with streptozotocin in eNOSKO mice, which were treated with enalapril (10 mg/kg BW/day; black bar) or telmisartan (2 mg/kg BW/day; gray bar) for 4 weeks (from at 6 weeks to 10 weeks)
as §3

Series [7] concerns human aortic endothelial cells. Description: Cell viability (trypan blue exclusion). The note with it: 48 hours. In kind it is cell-based.
Series [8] concerns porcine aortic endothelial cells. The note with it: various doses, from Khosla et al; cited from earlier work.
Series [9] deals with human aortic endothelial cells. Briefly: Oxidative stress (DCF-DA fluorescence) in endothelial cells. In kind it is cell-based. The note with it: 12 mg/dl. The method, then:
The green fluorescence is a measure of a marker for oxidative stress using the peroxide-sensitive probe 2′7′-dichlorofluorescein diacetate (DCF-DA) dye (FIG. 9A). On the right is the quantitation of oxidative stress, with control in open bar, uric acid (12 mg/dl) in the black bar, and uric acid with apocynin (an inhibitor of NADPH oxidase-induced oxidants) in the right bar (FIG. 9B).

The subject of series [10] is human aortic endothelial cells. Description: Mitochondria number (Mitotracker Orange) in endothelial cells. In kind it is cell-based. To be noted: 12 mg/dl, 48 hours. As to the method: Mitochondria numbers were measured with Mitotracker Orange in control cells (FIG. 12A) and UA treated cells (FIG. 12B). Shown in FIG. 12C is the quantified effect of uric acid 12 mg/dl on mitochondria density at 48 hours.
(§4) One of the key mechanisms by which uric acid acts to cause endothelial dysfunction is to cause a loss of mitochondria and mitochondria DNA, resulting in depletion of ATP stores necessary for endothelial function (FIGS. 11 and 12).

Series [11] concerns human aortic endothelial cells. Description: ATP levels in endothelial cells. In kind it is cell-based. The note with it: 3.5, 7 and 12 mg/dl, 48 hours. As to the method: Uric acid (3.5 mg/dl, 7 mg/dl and 12 mg/dl) was included in the media for 48 hours.
as §4

For series [12], the system named is DM eNOSKO mice. Description: Blood pressure in diabetic eNOSKO mice. To be noted: diabetic mice lacking endothelial nitric oxide synthesis; 50 mg/kg. In kind it is in vivo.

Entries after “also recorded” stand apart in the source; their conditions may differ.

Take insulin: in [1], the renal disease result was “can be prevented”.
Turning to `O=NO` [sodium nitrite], in series [2], the blood pressure result was “reduced blood pressure in eNOSKO mice similar to that observed in wild type mice”.
Take `O=C(NCCO[N+](=O)[O-])c1cccnc1` [nicorandil]: the mitochondrial loss entry in series [3] was “can prevent mitochondrial loss”.
`CCCc1nc2c(C)cc(-c3nc4ccccc4n3C)cc2n1Cc1ccc(-c2ccccc2C(=O)O)cc1` [telmisartan]: in series [4], the “glomerular type IV collagen deposition” value was “improve” and the mesangial expansion entry is on record as “improve mesangial expansion; also recorded: beneficial effect”. Also, in [5], the “blood pressure (BP)” value is “can significantly lower blood pressure”. Also, in series [6], the “advanced lesions (mesangiolysis with glomerular capillary microaneurysms, augmented deposition of extracellular matrix)” value is recorded as “Neither enalapril (g) nor telmisartan (h) treatment prevented these advanced lesions” and the mesangial expansion result is on record as “not prevented”.
For the molecule `O=c1[nH]c(=O)c2[nH]c(=O)[nH]c2[nH]1` [uric acid], the cell viability entry in series [7] (12 mg/dl) was “No effects on cell viability”. Moreover, the “cell viability (trypan blue exclusion)” value in [7] (3.5, 7 and 12 mg/dl) is reported as “No alterations in cell viability”. Besides, the “endothelial NO levels (fluorescence of DAF)” value in series [8] is reported as “causes a reduction in endothelial NO levels”. The “oxidative stress (DCF-DA)” value in series [9] was “causes oxidative stress”. Also, the mitochondria number entry in series [10] is “reduces mitochondria number”. In addition, in series [11], the ATP levels entry was “reduces ATP levels”.
On to `CCOC(=O)[C@H](CCc1ccccc1)N[C@@H](C)C(=O)N1CCC[C@H]1C(=O)O` [enalapril], for which, in series [12], the BP entry is recorded as “did not lower BP”. For the same molecule, in series [4], the “glomerular type IV collagen deposition” value was “improve” and the mesangial expansion result was “improve mesangial expansion; also recorded: beneficial effect”. Further, the “blood pressure (BP)” value in series [5] is “can significantly lower blood pressure”. Moreover, in series [6], the “advanced lesions (mesangiolysis with glomerular capillary microaneurysms, augmented deposition of extracellular matrix)” value was “Neither enalapril (g) nor telmisartan (h) treatment prevented these advanced lesions” and the mesangial expansion result is “not prevented”.
